“And” between values parts separate entries of the source, which are not always exact repeats. Equal values may be shown once. Inconclusive results are not listed. The source made the active and inactive calls.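 Rule for the calls: active = fitted half-maximal concentration of signal decrease at or below twice the sample's top tested concentration; inconclusive = flat curve between -70 and -30 percent, or poor fit; inactive = flat within 30 percent, signal rise, or potency above limit.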
molecular target: T. gondii ME49Luc in IFN-y HeLa, luciferase, 72 h; assay: T. gondii growth inhibition with IFN-gamma, dose response, cell-based, ME49Luc, HeLa, luciferase, 72 h (AID 1259418)

Question: Which AC50 does the source give for `N#Cc1ccc(-c2ccc(C3[C@@H]4CN(C(=O)C5CCCCC5)C[C@H]3N4)cc2)cc1` (stereo partly drawn) here?
Answer: 17.8 µM and 28.4 µM and 27.6 µM

Question: `Cc1ccc(CNC2=NCCNC23CCN(S(=O)(=O)c2ccc(Cl)s2)CC3)cc1` was tested. Which AC50 did it give?
Answer: 5.08 µM

Question: How did the AC50 turn out when `CCSc1ccc(-c2sc(-c3ccc(OC)cc3)nc2C)nn1` was run?
Answer: > 39 µM (inactive)

Question: `COc1ccc(Cl)cc1NC(=O)COc1nc(C)nc2ccccc12` was tested. Which AC50 did it give?
Answer: 24.1 µM

Question: `O=C(O)CC1CCC(c2ccc(-c3ccc(Nc4ccc(C(F)(F)F)nc4)cn3)cc2)CC1` (stereo not drawn) was tested. Which AC50 did it give?
Answer: 19 µM

Question: With `O=C(CC1N=C2c3ccccc3N=C(SCc3ccccc3Cl)N2C1=O)NCc1ccco1` (stereo not drawn) as the compound, how does the AC50 read?
Answer: > 39 µM (inactive)

Question: `O=C(C[C@H]1CC[C@H]2[C@@H](COC[C@@H](O)CN2Cc2cc(F)ccc2F)O1)NCc1ccc(Oc2ccccc2)cc1` was tested. Which AC50 did it give?
Answer: 27.3 µM

Question: For `Cc1cccc(C(=O)N2CCC(C(=O)NCCc3csc(C)n3)CC2)c1`, which AC50 is on record?
Answer: 26.4 µM

Question: Which AC50 does the source give for `CC(=O)O.CC(=O)O.[Cl][Pt+2][Cl].[NH-]C1CCCCC1.[NH2-]` here?
Answer: 25.4 µM

Question: For `CCc1c(C)sc2c1CCN(Cc1nc(-c3cc(C)ccc3C)oc1C)C2c1ccccc1` (stereo not drawn), which AC50 is on record?
Answer: 9.45 µM

Question: How did the AC50 turn out when `COc1ccc(-c2nc(CN(c3ccccc3)S(=O)(=O)c3ccccc3)c(C)o2)cc1OC` was run?
Answer: 3.77 µM

Question: With `Oc1cccc(-c2nccn2-c2cccc(-c3ccn[nH]3)c2)c1` as the compound, how does the AC50 read?
Answer: 22.7 µM

Question: How did the AC50 turn out when `COCCn1c(=S)[nH]c2cc(C(=O)N3CCC(O)(c4cccc(C(F)(F)F)c4)CC3)ccc2c1=O` was run?
Answer: 34.1 µM

Question: Which AC50 does the source give for `O=C(NCCc1csc(-c2ccccc2)n1)C1CCN(S(=O)(=O)c2cccc(Cl)c2)CC1` here?
Answer: > 39 µM (inactive)

Question: Which AC50 does the source give for `CN1C(=O)CCc2cc(NC(=O)Cc3ccc(Cl)cc3)ccc21` here?
Answer: 23.8 µM

Question: Which AC50 does the source give for `COc1cc(Nc2nc(SCc3ccc(F)cc3)nc3ccccc23)cc(OC)c1` here?
Answer: 13.2 µM

Question: For `O=C(Cc1cccnc1)N1CC(=O)N2[C@H](CO)[C@@H](c3ccc(C#CC4CCCCC4)cc3)[C@@H]2C1`, which AC50 is on record?
Answer: 8.96 µM and 14.8 µM

Question: For `Cc1cccc(-n2ncc3c(NCc4cccc(Cl)c4)ncnc32)c1`, which AC50 is on record?
Answer: 24.5 µM

Question: Which AC50 does the source give for `Cc1cccc(CNC2=NCCNC23CCN(S(=O)(=O)c2ccc4c(c2)CCCC4)CC3)c1` here?
Answer: 5.08 µM

Question: How did the AC50 turn out when `CCOc1ccccc1N(Cc1nc(-c2ccccc2OC)oc1C)S(=O)(=O)c1cccs1` was run?
Answer: 12.2 µM

Question: With `COc1cccc(NC(=O)N2CCc3nc(-c4ccc(C)cc4)sc3C2)c1` as the compound, how does the AC50 read?
Answer: 26.8 µM

Question: How did the AC50 turn out when `COc1ccccc1C(=O)Nc1ccc(-c2nc(-c3ccccc3)co2)cc1` was run?
Answer: 33.3 µM

Question: With `O=C(C1CCCCC1)N1CCC2(CC1)Nc1ccc(Cl)cc1-n1cccc12` as the compound, how does the AC50 read?
Answer: 24.7 µM

Question: For `COc1ccc(-c2nc(CN(c3ccccc3OC)S(=O)(=O)c3ccc(OC)cc3)c(C)o2)cc1`, which AC50 is on record?
Answer: 5.84 µM

Question: With `CCN1CCCC1CNC(=O)C1CCN(Cc2cc3ccccc3n2Cc2cccc(C)c2)CC1` (stereo not drawn) as the compound, how does the AC50 read?
Answer: 25.5 µM

Question: Which AC50 does the source give for `O=C(Cc1ccncc1)N1CCCCN2[C@@H](CO)[C@H](c3ccc(C#Cc4ccccc4F)cc3)[C@@H]2C1` here?
Answer: 13.5 µM and 17.9 µM

Question: With `COc1ccc(C#Cc2ccc([C@@H]3[C@H](CO)N4C(=O)CN(C(=O)NC(C)C)C[C@@H]34)cc2)cc1` as the compound, how does the AC50 read?
Answer: 28.3 µM

Question: For `N#CCSC1=Nc2ccccc2C2=NC(CC(=O)NCc3cccs3)C(=O)N12` (stereo not drawn), which AC50 is on record?
Answer: 19.6 µM

Question: For `N#C[C@@H]1[C@H](c2ccc(-c3cccc(F)c3)cc2)[C@@H](CO)N1C(=O)NC1CCCC1`, which AC50 is on record?
Answer: 20.4 µM

Question: How did the AC50 turn out when `Cc1nc2ccccn2c1CN(C)Cc1cnn(-c2ccccc2)c1` was run?
Answer: > 39 µM (inactive)

Question: With `Cc1ccccc1-c1ccc([C@H]2[C@H](CO)N3CCCCN(S(=O)(=O)Cc4ccccc4)C[C@@H]23)cc1` as the compound, how does the AC50 read?
Answer: 16.5 µM

Question: How did the AC50 turn out when `COc1ccc(-c2nc(NCCCN3CCCCC3C)c3ccccc3n2)cc1` (stereo not drawn) was run?
Answer: 13.9 µM

Question: Which AC50 does the source give for `Clc1cncc(OC[C@H]2CO[C@@H]3CN(Cc4cccs4)C[C@@H]23)c1` here?
Answer: 15.3 µM

Question: How did the AC50 turn out when `CC(=O)NC1=NN(C(C)=O)C(C)(c2ccccc2)S1` (stereo not drawn) was run?
Answer: 11 µM and 6.03 µM

Question: For `Cc1ccccc1S(=O)(=O)N1CC[C@H]2[C@H](CO)Nc3ccc(-c4ccc(F)cc4)cc3[C@H]21`, which AC50 is on record?
Answer: 28.5 µM

Question: For `COc1cccc(-c2ccc(C3[C@@H]4CN(Cc5ccccn5)C[C@H]3N4)cc2)c1` (stereo partly drawn), which AC50 is on record?
Answer: 15.6 µM

Question: `Clc1ccc(CNc2nc(SCc3cccc(Cl)c3)nc3ccccc23)cc1` was tested. Which AC50 did it give?
Answer: 5.24 µM

Question: Which AC50 does the source give for `COc1ccc(NC(=O)N2CCCCN3[C@H](CO)[C@@H](c4ccc(-c5ccccc5F)cc4)[C@@H]3C2)cc1` here?
Answer: 29.6 µM
